According to patent US20110117220A1, “PREPARATION METHOD OF PLANT EXTRACT USING HIGH PRESSURE-ENZYMATIC DECOMPOSITION TECHNIQUE AND THE COSMETIC COMPOSITION CONTAINING THE EXTRACT” (AMOREPACIFIC CORPORATION, priority 2009, published 2011):
Values after ≈ are worked out from the molar mass of the structure shown.

Key:
transglutaminase-1 = test: Promotion of transglutaminase-1 synthesis in human skin cells; assay type: cell-based; conditions: concentration 1.5 mM, 2 days
Method: Because the synthesis of transglutaminase-1 is essential for the formation and maintenance of the horny layer, the effect of promoting the synthesis of transglutaminase-1 can be considered to enhance the skin barrier and increase the skin moisturizing effect. Specifically, human skin cells were added to each well of a 96-well plate at a density of 5×10^4 cells/well and allowed to adhere to each well for 24 hours. The adhered cells were treated with each of the test materials, and after 2 days, the medium was removed, and the cells were stored in a refrigerator at −20° C. The treated cells were disrupted by subjecting the cells twice to freeze-thawing, and then treated with a mixture of acetone:ethanol (1:1, v/v) stored at −20° C. Then, the cells were allowed to stand at 4° C. for 30 minutes so as to be immobilized. Then, the cells were allowed to stand at room temperature to evaporate the organic solvent. […] The expression level of transglutaminase in the cells was determined by measuring the absorbance at 490 nm, and the correction of the measurement was carried out by measuring the background at 630 nm. The absorbance values of the treated cells were compared with the absorbance value of an untreated control group, thereby calculating the rate of promotion of transglutaminase-1 synthesis, and the results of the calculation are shown in Table 6 below.

tyrosinase = test: Tyrosinase activity inhibition (method of Vanni et al); assay type: biochemical; conditions: concentration 200 mg/ml; 37° C., 10 minutes
Source text: In order to measure the skin whitening effect of the plant extract prepared using the high-pressure enzymatic decomposition technique, a tyrosinase activity inhibitory effect was compared between the green tea extract of Example 1 prepared using the high-pressure enzymatic decomposition technique of the present invention, the green tea extract of Comparative Example 3 prepared using the solvent extraction technique, and vitamin C, a typical whitening functional component.
The tyrosinase activity inhibitory effect was measured using the method of Vanni at al (A. Vanni, Annali Di Chimica, 80, p35, 1990). Specifically, 1.0 ml of 0.1M potassium phosphate buffer (pH 6.8), 1.0 ml of 0.3 mg/ml tyrosine aqueous solution and 0.1 ml of 1,250 units/ml tyrosinase (SIGMAT-7755) were mixed with each other, and 0.2 ml of each sample solution was added thereto at a concentration of 200 mg/ml. Then, the mixture was subjected to an enzymatic reaction at 37° C., for 10 minutes. The absorbance of the reaction solution was measured at 480 nm, and based on the results of the measurement, the tyrosinase activity inhibitory rate (%) of each sample was calculated according to the following equation 2. […]
wherein A: absorbance at 480 nm of a reaction solution to which the sample was not added; and B: absorbance at 480 nm of a reaction solution to which the sample was added.

[1] = DPPH radical elimination (antioxidant activity); assay type: biochemical; conditions: 100 μM DPPH in ethanol, 37° C., 30 minutes, absorbance 540 nm
Source text: In order to measure the antioxidant effect of the plant extract prepared using the high-pressure enzymatic decomposition technique, a DPPH radical elimination effect was compared between the green tea extract prepared using the high-pressure enzymatic decomposition technique of the present invention (Example 1), the green tea extract prepared using the solvent extraction technique (Comparative Example 3), and Baicalin, a known antioxidant substance.
To measure the antioxidant effects of these extracts, a method of evaluating antioxidant activity based on the change in absorbance caused by the reduction of the organic radical DPPH (1,1-diphenyl-2-picrylhydrazyl) was used. The decrease in absorbance caused by the inhibition of oxidation of DPPH compared to the control was measured, and the concentration (IC50) at which the absorbance was 50% of the control was defined as the effective antioxidant concentration. A lower IC50 value indicates a higher DPPH removal effect, indicating higher antioxidant activity.
Specifically, 10 μl of each of the extracts of Example 1 and Comparative Example 3 and Baicalin was added to 100 μM of a solution of DPPH in ethanol to prepare a reaction solution. The reaction solution was allowed to react at 37° C. for 30 minutes, and then measured for absorbance at 540 nm.

Which “Promotion rate of transglutaminase-1 synthesis (%)” value (transglutaminase-1) does the source give for `[Ca+2].[Cl-].[Cl-]` [Calcium chloride, calcium chloride] here?
The value was 169.9 ± 6.4%.

Which “Tyrosinase activity inhibitory rate (%)” value (tyrosinase) does the source give for `O=C1O[C@H]([C@@H](O)CO)C(O)=C1O` [Vitamin C, vitamin C] here?
The value was 20%.

With `O=C(O)[C@H]1O[C@@H](Oc2cc3oc(-c4ccccc4)cc(=O)c3c(O)c2O)[C@H](O)[C@@H](O)[C@@H]1O` [Baicalin] as the molecule, how does the “IC50 (DPPH radical elimination)” value [1] read?
Its value is 3100 µg/mL (≈ 6.95 mM).
